Experimental data: US20070270393A1, “Methods and compositions for modulation of sleep cycle” (priority 2006, published 2007)

Tests used:
[1] = biological target: T1, glucocorticoid (GR) receptors (Homo sapiens, UniProt P04150); conditions: literature; cited from earlier work
T1 sequence (P04150 1-777): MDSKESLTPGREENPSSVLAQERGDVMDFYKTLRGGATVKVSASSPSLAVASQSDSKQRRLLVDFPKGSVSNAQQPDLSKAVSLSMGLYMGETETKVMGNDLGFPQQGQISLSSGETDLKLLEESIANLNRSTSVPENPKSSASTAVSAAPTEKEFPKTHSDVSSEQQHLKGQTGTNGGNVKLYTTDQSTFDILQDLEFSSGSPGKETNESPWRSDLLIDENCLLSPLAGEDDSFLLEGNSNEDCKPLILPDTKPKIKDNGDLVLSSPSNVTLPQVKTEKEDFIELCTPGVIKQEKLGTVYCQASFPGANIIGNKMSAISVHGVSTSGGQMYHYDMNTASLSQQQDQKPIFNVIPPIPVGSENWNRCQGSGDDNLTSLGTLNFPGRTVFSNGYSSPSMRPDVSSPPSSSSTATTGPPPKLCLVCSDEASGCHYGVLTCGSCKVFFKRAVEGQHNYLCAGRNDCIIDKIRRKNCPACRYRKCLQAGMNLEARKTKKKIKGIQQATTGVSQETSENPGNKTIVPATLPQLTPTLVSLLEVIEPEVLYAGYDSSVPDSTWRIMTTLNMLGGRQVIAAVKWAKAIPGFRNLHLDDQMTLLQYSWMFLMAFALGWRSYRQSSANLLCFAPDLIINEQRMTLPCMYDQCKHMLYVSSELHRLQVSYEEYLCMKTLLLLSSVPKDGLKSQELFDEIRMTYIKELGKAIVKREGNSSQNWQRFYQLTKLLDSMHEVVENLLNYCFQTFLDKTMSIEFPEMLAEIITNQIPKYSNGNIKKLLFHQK

[2] = tested on: HPA axis activity (cortisol, ACTH) and melatonin in chronic insomnia subjects; test: Overnight melatonin (dim light), cortisol and ACTH levels in the insomnia study; type: in vivo, human; conditions: after 5 days treatment in the outpatient setting, FIG. 3
[3] = tested on: healthy male; conditions: given in the afternoon, Wiedemann 1992; cited from earlier work
[4] = one study, Kawai (1989); cited from earlier work

SMILES: CC#C[C@]1(O)CC[C@H]2[C@@H]3CCC4=CC(=O)CCC4=C3[C@@H](c3ccc(N(C)C)cc3)C[C@@]21C [mifepristone, 17-beta-hydroxy-11-beta-(4-dimethyl-aminophenyl)-17-alpha-(1-propynyl)-estra-4,9-dien-3-one]
- antagonist of glucocorticoid (GR) receptors [1]: powerful antagonist
- DLMO (time at which melatonin reaches 20 pg/ml) [2]: delay
- effect on sleep [3]: significant worsening of sleep
- excreted in the urine [4]: less than 0.5 % of the daily dose
